The record followed here is ChEMBL document CHEMBL4840363, “Genome-Guided Discovery of Highly Oxygenated Aromatic Polyketides, Saccharothrixins D-M, from the Rare Marine Actinomycete Saccharothrix sp. D09” (J Nat Prod, 2021).

Assay [1] relates to MCF7. As to the kind of experiment: Cytotoxicity against human MCF7 cells assessed as reduction in cell viability by MTT assay. It is filed as functional, cell-based. On the technique in general: Formazan colour is commonly taken as a measure of viable cells.
Assay [2] concerns HCT-116. The experiment in a line: Cytotoxicity against human HCT-116 cells assessed as reduction in cell viability by MTT assay. In kind it is functional, cell-based.
Assay [3] has as its system A549. As to the kind of experiment: Cytotoxicity against human A549 cells assessed as reduction in cell viability by MTT assay. In kind it is functional, cell-based.
The subject of assay [4] is Helicobacter pylori. As to the kind of experiment: Antibacterial activity against Helicobacter pyroli 159 assessed as inhibition of bacterial growth incubated for 48 hrs. In kind it is functional.
Assay [5] has as its system HepG2. The experiment in a line: Cytotoxicity against human HepG2 cells assessed as reduction in cell viability by MTT assay. In kind it is functional, cell-based.
For assay [6], the system named is RAW264.7. As to the kind of experiment: Antiinflammatory activity against mouse RAW264.7 cells assessed as inhibition of LPS induced NO production preincubated for 30 mins followed by LPS addition measured after 48 hrs by griess reagent based assay. It is filed as functional, cell-based. (In general: Nitrite, measured by Griess reagent, commonly stands in for NO production.)

The subject of assay [7] is Staphylococcus aureus. The experiment in a line: Antibacterial activity against Staphylococcus aureus ATCC25923 assessed as inhibition of bacterial growth incubated for 48 hrs. In kind it is functional.
Assay [8] concerns Helicobacter pylori. The experiment in a line: Antibacterial activity against Helicobacter pyroli G27 assessed as inhibition of bacterial growth incubated for 48 hrs. In kind it is functional.

Usually IC50 stands for the point on the concentration scale where inhibition reaches its midpoint. As a reminder, the MIC is the smallest concentration in the dilution series that meets the test's criterion for growth inhibition.

In brackets after ≈: the same amount, converted by molar mass.

As to `COc1cccc2c1[C@H](O)[C@]13C=C[C@]4(O)CC(C)=CC(=O)[C@@H]4[C@]1(O3)[C@H]2O`, the IC50 in assay [1], in assay [2], in assay [3] and in assay [5] was above 20 µM throughout. Further, in assay [4], the minimal inhibitory concentration (MIC) was 32 mg/L (≈ 89.8 µM).
Turning to `COc1cccc2c1[C@H](O)[C@]13C=C[C@]4(O)CC(C)=CC(=O)[C@@H]4[C@]1(O3)C2=O`, the IC50 in assay [1] is above 20 µM; in assay [2], above 20 µM; in assay [3], above 20 µM; in assay [6], 28 µM; in assay [5] it was above 20 µM. Also, the MIC in assay [4] came out at 32 mg/L (≈ 90.3 µM).
`Cc1cc(O[C@H]2O[C@@H](C)[C@H](O)[C@@H](O)[C@H]2O)c2c3c(ccc2c1)C(=O)c1c(O)cccc1[C@@H]3O`: the half-maximal inhibitory concentration (IC50) in assay [1], in assay [2], in assay [3] and in assay [5] was above 20 µM throughout. Besides, the MIC in assay [7], in assay [8] and in assay [4] was 16 mg/L (≈ 35.4 µM) each time.
